Reference: patent US11780845B2 (Relay Therapeutics, Inc., priority 2019, dated 2023)

Experiments:
FGFR2 = FGFR2 (Homo sapiens (Human), UniProt P21802); assay: Biochemical FGFR2 Caliper assay
SNU-16 = assay: Cell SNU-16 assay; assay type: cell-based; details: Homo sapiens, SNU-16, SNU-16 cells

Sequence of FGFR2 (P21802 22-821): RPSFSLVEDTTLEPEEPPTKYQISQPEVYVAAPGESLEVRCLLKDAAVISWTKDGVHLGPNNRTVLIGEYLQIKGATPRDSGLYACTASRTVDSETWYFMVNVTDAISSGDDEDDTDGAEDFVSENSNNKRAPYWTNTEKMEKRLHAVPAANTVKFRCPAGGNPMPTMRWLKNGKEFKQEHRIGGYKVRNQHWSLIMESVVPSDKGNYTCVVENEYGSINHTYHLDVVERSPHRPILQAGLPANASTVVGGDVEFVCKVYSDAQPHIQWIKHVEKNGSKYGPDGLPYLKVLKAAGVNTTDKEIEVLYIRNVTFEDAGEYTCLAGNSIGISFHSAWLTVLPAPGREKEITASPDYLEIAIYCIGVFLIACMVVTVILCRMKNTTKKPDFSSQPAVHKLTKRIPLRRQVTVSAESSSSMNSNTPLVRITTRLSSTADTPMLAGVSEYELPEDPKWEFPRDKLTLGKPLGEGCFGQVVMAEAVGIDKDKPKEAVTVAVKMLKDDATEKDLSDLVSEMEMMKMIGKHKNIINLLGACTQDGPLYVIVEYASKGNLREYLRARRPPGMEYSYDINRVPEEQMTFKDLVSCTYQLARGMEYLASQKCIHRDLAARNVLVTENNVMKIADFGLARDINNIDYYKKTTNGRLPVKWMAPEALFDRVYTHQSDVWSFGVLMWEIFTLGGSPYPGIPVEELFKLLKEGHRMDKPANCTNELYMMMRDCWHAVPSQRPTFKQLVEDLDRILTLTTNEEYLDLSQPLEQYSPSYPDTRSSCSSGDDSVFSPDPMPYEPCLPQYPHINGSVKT

Compound | IC50 (FGFR2) | IC50 (SNU-16)
C=C(C)C(=O)Nc1ccc(-c2c(-c3ccc(Oc4nccc(C)n4)cc3)c3c(C)ncnc3n2C)c(C)c1 [Example 1125] | 1000 to 100000 nM | 1000 to 100000 nM
C=C(C)C(=O)Nc1ccc(-c2c(-c3ccc(Oc4nccc(C)n4)c(F)c3)c3c(C)ncnc3n2C)c(C)c1 [Example 1126] | < 100 nM | ≤ 100 nM
C=CC(=O)Nc1ccc(-c2c(-c3cn[nH]c3)c3c(N)ncnc3n2C)cc1 [Example 1128] | < 100 nM | ≤ 100 nM
C#Cc1cc(C)c(-c2[nH]c3ncnc(N)c3c2-c2ccc(Oc3nccc(C)n3)cc2)cn1 [Example 1130] | 250 to 1000 nM | 250 to 1000 nM
C=C1C[C@H](C)N(c2ccc(-c3c(-c4ccc(Oc5nccc(C)n5)cc4)c4c(N)ncnc4n3C)cc2)C1=O [Example 1131] | < 100 nM | ≤ 100 nM
C=CC(=C)Nc1ccc(-c2c(-c3cnn(C)c3)c3c(N)ncnc3n2C)c(C)c1 [Example 1132] | 1000 to 100000 nM | 250 to 1000 nM
C=C1C(=O)N(c2ccc(-c3c(-c4ccc(Oc5nccc(C)n5)cc4)c4c(N)ncnc4n3C)cc2)C[C@@H]1C [Example 1133] | 100 to 250 nM | 100 to 250 nM
C=C1C(=O)N(c2ccc(-c3c(-c4ccc(Oc5nccc(C)n5)cc4)c4c(N)ncnc4n3C)cc2)C[C@H]1C [Example 1135] | 250 to 1000 nM | 100 to 250 nM
C#Cc1cc(C)c(-c2c(-c3ccc(Oc4nccc(C)n4)cc3)c3c(N)ncnc3n2C)nn1 [Example 1136] | < 100 nM | ≤ 100 nM
C=CC(=O)Nc1ccc(-c2c(-c3cc4ccccc4[nH]3)c3c(N)ncnc3n2C)cc1 [Example 1138] | < 100 nM | ≤ 100 nM
C#Cc1cc(C)c(-c2c(-c3ccc(C(=O)NC4CCC4)c(OC)c3)c3c(N)ncnc3n2C)cn1 [Example 1143] | 1000 to 100000 nM | 250 to 1000 nM
C#Cc1cc(C)c(-c2c(-c3cnn(C)c3)c3c(N)ncnc3n2C)cn1 [Example 1144] | 100 to 250 nM | ≤ 100 nM
C=C(C)C(=O)Nc1ccc(-c2c(-c3ccc(-c4noc(C)n4)cc3)c3c(N)ncnc3n2C)cc1 [Example 1145] | 1000 to 100000 nM | 1000 to 100000 nM
C=CC(=O)Nc1ccc(-c2c(-c3ccc4[nH]ccc4c3)c3c(N)ncnc3n2C)cc1 [Example 1148] | < 100 nM | ≤ 100 nM
C=C(C)C(=O)Nc1ccc(-c2c(-c3ccc(-n4cc(C)cn4)nc3)c3c(N)ncnc3n2C(C)C)cc1 [Example 1151] | 100 to 250 nM | 250 to 1000 nM
C#Cc1ncc(-c2c(-c3ccc(Oc4nccc(C)n4)c(F)c3)c3c(N)ncnc3n2C)c(C)n1 [Example 1153] | < 100 nM | 100 to 250 nM
C=CC(=O)Nc1ccc(-c2c(-c3cc[nH]c3)c3c(N)ncnc3n2C)cc1 [Example 1154] | < 100 nM | ≤ 100 nM
C=C(C)C(=O)Nc1ccc(-c2c(-c3ccc(-c4ccnn4C)nc3)c3c(N)ncnc3n2C)cc1 [Example 1155] | < 100 nM | ≤ 100 nM
C=CC(=O)Nc1ccc(-c2c(-c3c[nH]c4ccccc34)c3c(N)ncnc3n2C)cc1 [Example 1157] | 250 to 1000 nM | 250 to 1000 nM
C=CC(=O)Nc1ccc(-c2c(-c3ccc(=O)[nH]c3)c3c(N)ncnc3n2C)cc1 [Example 1158] | < 100 nM | ≤ 100 nM
C#Cc1cc(C)c(-c2c(-c3ccc(OC(C)C)cc3)c3c(N)ncnc3n2C)cn1 [Example 1160] | < 100 nM | ≤ 100 nM

Compound | IC50 (FGFR2) | IC50 (SNU-16)
C=C(C)C(=O)Nc1cc(-c2c(-c3ccc(Oc4nccc(C)n4)c(F)c3)c3c(N)ncnc3n2C)n(C)n1 [Example 1161] | < 100 nM | ≤ 100 nM
CC#Cc1ncc(-c2c(-c3ccc(Oc4nccc(C)n4)cc3)c3c(N)ncnc3n2C)c(C)n1 [Example 1162] | < 100 nM | ≤ 100 nM
C#Cc1cc(C)c(-c2c(-c3ccc(Oc4nccc(C)n4)c(F)c3)c3c(C)ncnc3n2C)cn1 [Example 1163] | < 100 nM | ≤ 100 nM
C#Cc1ncc(-c2c(-c3ccc(Oc4nccc(C)n4)cc3)c3c(N)ncnc3n2C)c(C)c1F [Example 1164] | < 100 nM | ≤ 100 nM
C=C(C)C(=O)Nc1cc(C)c(-c2c(-c3ccc(Oc4nccc(C)n4)cc3)c3c(N)ncnc3n2C)c(C)c1 [Example 1165] | < 100 nM | ≤ 100 nM
C#Cc1nc2ccc(-c3c(-c4ccc(Oc5nccc(C)n5)cc4)c4c(N)ncnc4n3C)cc2o1 [Example 1167] | < 100 nM | ≤ 100 nM
C#Cc1ccc(-c2c(-c3ccc(Oc4nccc(C)n4)c(F)c3)c3c(N)ncnc3n2C)c(C)n1 [Example 1168] | < 100 nM | 1000 to 100000 nM
C#Cc1ncc(-c2c(-c3ccc(Oc4nccc(C)n4)c(F)c3)c3c(C)ncnc3n2C)c(C)n1 [Example 1170] | < 100 nM | ≤ 100 nM
C#Cc1nc(C)c(-c2c(-c3ccc(Oc4nccc(C)n4)cc3)c3c(N)ncnc3n2C)cc1F [Example 1171] | < 100 nM | ≤ 100 nM
C=C(C)c1nc(-c2ccc(-c3c(-c4ccccc4)c4c(N)ncnc4n3C)cc2)no1 [Example 1172] | < 100 nM | ≤ 100 nM
C#Cc1ccc(-c2c(-c3ccc(Oc4nccc(C)n4)cc3)c3c(N)ncnc3n2C)cc1F [Example 1175] | 100 to 250 nM | ≤ 100 nM
C#Cc1c(F)cc(-c2c(-c3ccc(Oc4nccc(C)n4)cc3)c3c(N)ncnc3n2C)cc1F [Example 1177] | < 100 nM | ≤ 100 nM
C#Cc1ncc(-c2c(C3=CC[C@@H](C(=O)N4CCCC4)CC3)c3c(N)ncnc3n2C)c(C)n1 [Example 1180] | < 100 nM | ≤ 100 nM
C#Cc1cnc(-c2c(-c3ccc(Oc4nccc(C)n4)cc3)c3c(N)ncnc3n2C)cn1 [Example 1181] | < 100 nM | ≤ 100 nM
C#Cc1ncc(-c2c(-c3ccc(C(=O)N4CCC[C@@H]4C#C)cc3)c3c(N)ncnc3n2C)c(C)n1 [Example 1182] | < 100 nM | ≤ 100 nM
C#Cc1ccc(-c2c(-c3ccc(Oc4nccc(C)n4)c(F)c3)c3cncnc3n2C)c(C)n1 [Example 1183] | < 100 nM | ≤ 100 nM
C#Cc1ncc(-c2c(-c3ccc(C(=O)N4CCC[C@H]4C#C)cc3)c3c(N)ncnc3n2C)c(C)n1 [Example 1184] | 1000 to 100000 nM | 1000 to 100000 nM
C#Cc1cc(C)c(-c2c(-c3ccc(C(=O)N4CCC[C@H]4C#C)cc3)c3c(N)ncnc3n2C)cn1 [Example 1185] | < 100 nM | ≤ 100 nM
C=C1CCN(c2ccc(-c3c(-c4ccc(Oc5nccc(C)n5)c(F)c4)c4c(C)ncnc4n3C)c(C)c2)C1=O [Example 1186] | < 100 nM | ≤ 100 nM
C#Cc1cc(C)c(-c2c(-c3ccc(C(=O)N4CCC[C@@H]4C#C)cc3)c3c(N)ncnc3n2C)cn1 [Example 1187] | < 100 nM | ≤ 100 nM
C#Cc1ncc(-c2c(-c3ccc(Oc4nccc(C)n4)cc3)c3c(N)ncnc3n2C)cc1C#N [Example 1188] | < 100 nM | ≤ 100 nM

Compound | IC50 (FGFR2) | IC50 (SNU-16)
C=C(C)C(=O)Nc1ccc(-c2c(C3=CCN(Cc4ccccc4)CC3)c3c(N)ncnc3n2C)cc1 [Example 1189] | < 100 nM | ≤ 100 nM
C#Cc1cc(-c2c(-c3ccccc3)c3c(N)ncnc3n2C)ccn1 [Example 1193] | 250 to 1000 nM | 250 to 1000 nM
C=Cc1ccc(-c2c(-c3ccccc3)c3c(N)ncnc3n2C)cn1 [Example 1194] | 1000 to 100000 nM | 1000 to 100000 nM
C#Cc1ccc(-c2c(-c3ccc(Oc4nccc(C)n4)cc3F)c3c(N)ncnc3n2C)c(C)n1 [Example 1197] | < 100 nM | ≤ 100 nM
C#Cc1cc(F)c(-c2c(-c3ccc(Oc4nccc(C)n4)c(F)c3)c3c(N)ncnc3n2C)cn1 [Example 1198] | < 100 nM | ≤ 100 nM
C#Cc1ccc(-c2c(-c3ccc(Oc4nccc(C)n4)c(F)c3)c3c(N)ncnc3n2C)c(F)n1 [Example 1200] | 1000 to 100000 nM | 1000 to 100000 nM
C#Cc1nc2cc(-c3c(-c4ccc(Oc5nccc(C)n5)c(F)c4)c4c(N)ncnc4n3C)ccc2[nH]1 [Example 1202] | 1000 to 100000 nM | 250 to 1000 nM
C#Cc1cc(C)c(-c2c(-c3ccc(Oc4cccc(C)n4)c(F)c3)c3c(N)ncnc3n2C)cn1 [Example 1203] | < 100 nM | ≤ 100 nM
Cc1ccnc(Oc2ccc(-c3c(-c4ccc(C)nc4C)n(C)c4ncnc(N)c34)cc2F)n1 [Example 1206] | 250 to 1000 nM | 250 to 1000 nM
C#Cc1cc(C)c(-c2c(-c3ccc(Oc4nccc(C)n4)c(F)c3)c3c(N)ncnc3n2C(C)C)cn1 [Example 1213] | < 100 nM | ≤ 100 nM
C#Cc1ccc(-c2c(-c3ccc(Oc4nccc(C)n4)c(F)c3)c3c(N)ncnc3n2C(C)C)c(C)n1 [Example 1214] | < 100 nM | ≤ 100 nM
C#Cc1cc(C)c(-c2c(-c3ccc(Oc4nccc(C)n4)c(F)c3)c3c(N)ncnc3n2C)c(C)n1 [Example 1215] | < 100 nM | ≤ 100 nM
C#Cc1cc(CC)c(-c2c(-c3ccc(Oc4nccc(C)n4)c(F)c3)c3c(N)ncnc3n2C)cn1 [Example 1217] | < 100 nM | ≤ 100 nM
C#Cc1cc(CO)c(-c2c(-c3ccc(Oc4nccc(C)n4)c(F)c3)c3c(N)ncnc3n2C)cn1 [Example 1228] | < 100 nM | ≤ 100 nM
COCC#Cc1ncc(-c2c(-c3ccc(Oc4nccc(C)n4)cc3)c3c(N)ncnc3n2C)c(C)n1 [Example 1232] | < 100 nM | ≤ 100 nM
C#Cc1ncc(-c2c(-c3ccc(Oc4nccc(C)n4)c(F)c3)c3c(N)ncnc3n2C)c2ccccc12 [Example 1233] | < 100 nM | ≤ 100 nM
C#Cc1cc(C)c(-c2c(-c3ccc(Oc4ncccn4)c(F)c3)c3c(N)ncnc3n2C)cn1 [Example 1234] | < 100 nM | ≤ 100 nM
C#Cc1cc(-c2c(-c3ccc(Oc4nccc(C)n4)cc3)c3c(N)ncnc3n2C)n(C)n1 [Example 1236] | 1000 to 100000 nM | 1000 to 100000 nM
C#Cc1cc(-c2c(-c3ccc(Oc4nccc(C)n4)c(F)c3)c3c(N)ncnc3n2C)ccn1 [Example 1237] | 250 to 1000 nM | ≤ 100 nM
C=C1CCc2ccc(-c3c(-c4ccc(Oc5nccc(C)n5)cc4)c4c(N)ncnc4n3C)cc2C1=O [Example 1242] | 100 to 250 nM | 1000 to 100000 nM
